Data from PubChem BioAssay (NCI).
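Compound exposure: 48 hours, 5 concentrations, 96-well plates. TGI: concentration producing complete growth inhibition.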

Legend:
Test in all cases: growth of human tumour cells (NCI), 48 h
M14 melanoma = tested on: M14 melanoma
ACHN renal = tested on: ACHN renal
786-0 renal = tested on: 786-0 renal
NCI-H522 lung = tested on: NCI-H522 lung
SF-268 CNS = tested on: SF-268 CNS
UACC-62 melanoma = tested on: UACC-62 melanoma
HCC-2998 colon = tested on: HCC-2998 colon
OVCAR-4 ovarian = tested on: OVCAR-4 ovarian
NCI-H226 lung = tested on: NCI-H226 lung
MDA-N = tested on: MDA-N
U251 CNS = tested on: U251 CNS
UO-31 renal = tested on: UO-31 renal
NCI-H23 lung = tested on: NCI-H23 lung
A498 renal = tested on: A498 renal
KM12 colon = tested on: KM12 colon
SNB-19 CNS = tested on: SNB-19 CNS
RXF 393 renal = tested on: RXF 393 renal
EKVX NSCLC = tested on: EKVX NSCLC
OVCAR-8 ovarian = tested on: OVCAR-8 ovarian
NCI/ADR-RES ovarian = tested on: NCI/ADR-RES ovarian
SF-539 CNS = tested on: SF-539 CNS
MDA-MB-231 breast = tested on: MDA-MB-231 breast
SK-MEL-5 melanoma = tested on: SK-MEL-5 melanoma
RPMI-8226 leukemia = tested on: RPMI-8226 leukemia
HS 578T breast = tested on: HS 578T breast
SW-620 colon = tested on: SW-620 colon
HOP-92 NSCLC = tested on: HOP-92 NSCLC
SK-MEL-28 melanoma = tested on: SK-MEL-28 melanoma
TK-10 renal = tested on: TK-10 renal
SK-OV-3 ovarian = tested on: SK-OV-3 ovarian
A549 NSCLC = tested on: A549 NSCLC
LOX IMVI melanoma = tested on: LOX IMVI melanoma
COLO 205 colon = tested on: COLO 205 colon
DU-145 prostate = tested on: DU-145 prostate
BT-549 breast = tested on: BT-549 breast
UACC-257 melanoma = tested on: UACC-257 melanoma
SF-295 CNS = tested on: SF-295 CNS
SK-MEL-2 melanoma = tested on: SK-MEL-2 melanoma
MCF7 breast = tested on: MCF7 breast
OVCAR-3 ovarian = tested on: OVCAR-3 ovarian
MDA-MB-435 = tested on: MDA-MB-435
MOLT-4 leukemia = tested on: MOLT-4 leukemia
CAKI-1 renal = tested on: CAKI-1 renal
SR leukemia = tested on: SR leukemia
HOP-62 NSCLC = tested on: HOP-62 NSCLC
SNB-75 CNS = tested on: SNB-75 CNS
IGROV1 ovarian = tested on: IGROV1 ovarian
PC-3 prostate = tested on: PC-3 prostate
K-562 leukemia = tested on: K-562 leukemia
HT29 colon = tested on: HT29 colon
CCRF-CEM leukemia = tested on: CCRF-CEM leukemia
HCT-116 colon = tested on: HCT-116 colon
HL-60(TB) leukemia = tested on: HL-60(TB) leukemia
HCT-15 colon = tested on: HCT-15 colon
MALME-3M melanoma = tested on: MALME-3M melanoma
SN12C renal = tested on: SN12C renal
T-47D breast = tested on: T-47D breast
OVCAR-5 ovarian = tested on: OVCAR-5 ovarian

**Q.** Which results are given for `CCc1[nH]nc(C(N)=O)c1N=NN(C)C`?
**A.** TGI (M14 melanoma): > 100 µM; TGI (ACHN renal): > 100 µM; TGI (786-0 renal): > 100 µM; TGI (NCI-H522 lung): > 100 µM; TGI (SF-268 CNS): > 100 µM; TGI (UACC-62 melanoma): > 100 µM; TGI (HCC-2998 colon): > 100 µM; TGI (OVCAR-4 ovarian): > 100 µM; TGI (NCI-H226 lung): > 100 µM; TGI (MDA-N): > 100 µM; TGI (U251 CNS): > 100 µM; TGI (UO-31 renal): > 100 µM; TGI (NCI-H23 lung): > 100 µM; TGI (A498 renal): > 100 µM; TGI (KM12 colon): > 100 µM; TGI (SNB-19 CNS): > 100 µM; TGI (RXF 393 renal): > 100 µM; TGI (EKVX NSCLC): > 100 µM; TGI (OVCAR-8 ovarian): > 100 µM; TGI (NCI/ADR-RES ovarian): > 100 µM; TGI (SF-539 CNS): > 100 µM; TGI (MDA-MB-231 breast): > 100 µM; TGI (SK-MEL-5 melanoma): > 100 µM; TGI (RPMI-8226 leukemia): > 100 µM; TGI (HS 578T breast): > 100 µM; TGI (SW-620 colon): > 100 µM; TGI (HOP-92 NSCLC): > 100 µM; TGI (SK-MEL-28 melanoma): > 100 µM; TGI (TK-10 renal): > 100 µM; TGI (SK-OV-3 ovarian): > 100 µM; TGI (A549 NSCLC): > 100 µM; TGI (LOX IMVI melanoma): > 100 µM; TGI (COLO 205 colon): > 100 µM; TGI (DU-145 prostate): > 100 µM; TGI (BT-549 breast): > 100 µM; TGI (UACC-257 melanoma): > 100 µM; TGI (SF-295 CNS): > 100 µM; TGI (SK-MEL-2 melanoma): > 100 µM; TGI (MCF7 breast): > 100 µM; TGI (OVCAR-3 ovarian): > 100 µM; TGI (MDA-MB-435): > 100 µM; TGI (MOLT-4 leukemia): 41.6 µM; TGI (CAKI-1 renal): > 100 µM; TGI (SR leukemia): 38.9 µM; TGI (HOP-62 NSCLC): > 100 µM; TGI (SNB-75 CNS): > 100 µM; TGI (IGROV1 ovarian): > 100 µM; TGI (PC-3 prostate): > 100 µM; TGI (K-562 leukemia): 66.7 µM; TGI (HT29 colon): > 100 µM; TGI (CCRF-CEM leukemia): > 100 µM; TGI (HCT-116 colon): > 100 µM; TGI (HL-60(TB) leukemia): > 100 µM; TGI (HCT-15 colon): > 100 µM; TGI (MALME-3M melanoma): > 100 µM; TGI (SN12C renal): > 100 µM; TGI (T-47D breast): > 100 µM

**Q.** How did the TGI (M14 melanoma) turn out when `COc1c(C)c(OC)c(C(=O)CC(C)C)c(OC)c1C` was run?
**A.** Its TGI is greater than 100 µM.

**Q.** What about the TGI (ACHN renal) of the same molecule?
**A.** The TGI was greater than 100 µM.

**Q.** What about the TGI (786-0 renal) of the same molecule?
**A.** Its TGI is greater than 100 µM.

**Q.** What about the TGI (NCI-H522 lung) of the same molecule?
**A.** The TGI was greater than 100 µM.

**Q.** What about the TGI (SF-268 CNS) of the same molecule?
**A.** The TGI was greater than 100 µM.

**Q.** And the TGI (UACC-62 melanoma)?
**A.** The TGI was greater than 100 µM.

**Q.** And the TGI (HCC-2998 colon)?
**A.** Its TGI is greater than 100 µM.

**Q.** And the TGI (OVCAR-4 ovarian)?
**A.** Its TGI is greater than 100 µM.

**Q.** What about the TGI (NCI-H226 lung) of the same molecule?
**A.** Its TGI is greater than 100 µM.

**Q.** And the TGI (MDA-N)?
**A.** Its TGI is greater than 100 µM.

**Q.** What about the TGI (U251 CNS) of the same molecule?
**A.** The TGI was greater than 100 µM.

**Q.** What about the TGI (UO-31 renal) of the same molecule?
**A.** The TGI was greater than 100 µM.

**Q.** What about the TGI (NCI-H23 lung) of the same molecule?
**A.** Its TGI is greater than 100 µM.

**Q.** And the TGI (A498 renal)?
**A.** Its TGI is greater than 100 µM.

**Q.** What about the TGI (KM12 colon) of the same molecule?
**A.** The TGI was greater than 100 µM.

**Q.** What about the TGI (SNB-19 CNS) of the same molecule?
**A.** The TGI was greater than 100 µM.

**Q.** And the TGI (RXF 393 renal)?
**A.** The TGI was greater than 100 µM.

**Q.** And the TGI (EKVX NSCLC)?
**A.** Its TGI is greater than 100 µM.

**Q.** And the TGI (OVCAR-8 ovarian)?
**A.** Its TGI is greater than 100 µM.

**Q.** And the TGI (NCI/ADR-RES ovarian)?
**A.** The TGI was greater than 100 µM.

**Q.** What about the TGI (SF-539 CNS) of the same molecule?
**A.** The TGI was greater than 100 µM.

**Q.** And the TGI (MDA-MB-231 breast)?
**A.** The TGI was greater than 100 µM.

**Q.** And the TGI (SK-MEL-5 melanoma)?
**A.** The TGI was greater than 100 µM.

**Q.** What about the TGI (RPMI-8226 leukemia) of the same molecule?
**A.** Its TGI is 73.1 µM.

**Q.** And the TGI (HS 578T breast)?
**A.** The TGI was greater than 100 µM.

**Q.** What about the TGI (SW-620 colon) of the same molecule?
**A.** Its TGI is greater than 100 µM.

**Q.** And the TGI (HOP-92 NSCLC)?
**A.** Its TGI is greater than 100 µM.

**Q.** And the TGI (SK-MEL-28 melanoma)?
**A.** The TGI was greater than 100 µM.

**Q.** And the TGI (TK-10 renal)?
**A.** The TGI was greater than 100 µM.

**Q.** And the TGI (SK-OV-3 ovarian)?
**A.** The TGI was greater than 100 µM.

**Q.** And the TGI (A549 NSCLC)?
**A.** Its TGI is greater than 100 µM.

**Q.** What about the TGI (LOX IMVI melanoma) of the same molecule?
**A.** Its TGI is greater than 100 µM.

**Q.** What about the TGI (COLO 205 colon) of the same molecule?
**A.** The TGI was greater than 100 µM.

**Q.** And the TGI (DU-145 prostate)?
**A.** Its TGI is greater than 100 µM.

**Q.** What about the TGI (BT-549 breast) of the same molecule?
**A.** The TGI was greater than 100 µM.

**Q.** What about the TGI (UACC-257 melanoma) of the same molecule?
**A.** Its TGI is greater than 100 µM.

**Q.** What about the TGI (SF-295 CNS) of the same molecule?
**A.** The TGI was greater than 100 µM.

**Q.** What about the TGI (SK-MEL-2 melanoma) of the same molecule?
**A.** Its TGI is greater than 100 µM.

**Q.** And the TGI (MCF7 breast)?
**A.** The TGI was greater than 100 µM.

**Q.** And the TGI (OVCAR-3 ovarian)?
**A.** The TGI was greater than 100 µM.

**Q.** And the TGI (MDA-MB-435)?
**A.** The TGI was greater than 100 µM.

**Q.** What about the TGI (MOLT-4 leukemia) of the same molecule?
**A.** Its TGI is greater than 100 µM.

**Q.** And the TGI (CAKI-1 renal)?
**A.** Its TGI is greater than 100 µM.

**Q.** What about the TGI (SR leukemia) of the same molecule?
**A.** The TGI was greater than 100 µM.

**Q.** And the TGI (HOP-62 NSCLC)?
**A.** The TGI was greater than 100 µM.

**Q.** And the TGI (OVCAR-5 ovarian)?
**A.** Its TGI is greater than 100 µM.

**Q.** And the TGI (IGROV1 ovarian)?
**A.** Its TGI is greater than 100 µM.

**Q.** What about the TGI (PC-3 prostate) of the same molecule?
**A.** Its TGI is greater than 100 µM.

**Q.** What about the TGI (HT29 colon) of the same molecule?
**A.** Its TGI is greater than 100 µM.

**Q.** And the TGI (CCRF-CEM leukemia)?
**A.** The TGI was greater than 100 µM.

**Q.** And the TGI (HCT-116 colon)?
**A.** The TGI was greater than 100 µM.

**Q.** What about the TGI (HL-60(TB) leukemia) of the same molecule?
**A.** Its TGI is 50.5 µM.

**Q.** What about the TGI (HCT-15 colon) of the same molecule?
**A.** The TGI was greater than 100 µM.

**Q.** What about the TGI (MALME-3M melanoma) of the same molecule?
**A.** The TGI was greater than 100 µM.

**Q.** What about the TGI (SN12C renal) of the same molecule?
**A.** Its TGI is greater than 100 µM.

**Q.** What about the TGI (T-47D breast) of the same molecule?
**A.** Its TGI is greater than 100 µM.
